In patent US20240261422A1, “ANTHRACYCLINE ANTIBODY CONJUGATES” (SEAGEN INC., priority 2021, published 2024):

Key:
L540cy, HL = experiment: In vitro growth inhibition (CellTiter-Glo, 96 h), L540cy; assay type: cell-based
Procedure: (§1) Cell culture of cell lines as listed in Table 2-4 in log-phase growth were seeded in 96-well plates and grown for 24 h in cell culture media containing 150 μL RPMI 1640 supplemented with 20% FBS (see Mol. Cancer Ther., 2016, 15(5), 938-945 and Mol. Cancer Ther., 2018, 17(8), 1752-1760). Serial dilutions of free drugs or antibody-drug conjugates (final concentration between 0.004 nM and 1 μM) in cell culture media were prepared at 4× working concentrations; 50 μL of each dilution was added to the 96-well plates. Following addition of the drug or ADC, the cells were incubated with test articles (free drugs or ADCs) for 4 d at 37° C. After 96 h, growth inhibition was assessed by CellTiter-Glo® (Promega, Madison, WI) and luminescence was measured on a plate reader (brand, model).
(§2) Cells were treated for 96 hours with anthracycline analogues listed in Table 2, and then assessed for viability as described in the procedures as described above. […] ND denotes value not determined with that assay for the specified compound.
(§3) ADCs were prepared by full reduction of interchain disulfides to reveal 8-conjugatable cysteines/antibody, and subsequent alkylation with the maleimide-containing drug-linkers (Compounds 14, 18, 21, 24, 29, 32, 33, 34, and 48) according to the procedures described in Mol. Cancer Ther. 2018, 17(8). 1752-1760. Conjugates of antibody cOKT9 were prepared with anthracycline linkers. Cancer cell lines were treated with cOKT9 ADCs (average DAR of 8:1) for 96 h and then assessed for viability. […] ND denotes value not determined with that assay for the specified compound.
(§4) Anti-CD30 ADCs comprising cAC10 antibody conjugated to drug-linkers 24, 32, 29, 18, 14, and 48 with an average DAR of 4 were prepared for evaluation on a CD30-expressing lymphoma cell line panel. […] Anti-CD30 conjugates bearing the PNU linkers 24, 32, 29, 18, and 14 were active on L540cy, DEL, and Karpas299 lymphoma cell lines, and conjugate 48 was active on L540cy and DEL cell lines, with IC50s ranging from 0.2-4 ng/mL.

786-O, MDR + RCC = experiment: In vitro growth inhibition (CellTiter-Glo, 96 h), 786-O; assay type: cell-based; settings: cOKT9 ADCs, average DAR 8, 96 h
Procedure: as §1, §2, §3

BxPC3, PancCa = experiment: In vitro growth inhibition (CellTiter-Glo, 96 h), BxPC3; assay type: cell-based; settings: cOKT9 ADCs, average DAR 8, 96 h
Procedure: as §1, §2, §3

HL60, AML = experiment: In vitro growth inhibition (CellTiter-Glo, 96 h), HL60; assay type: cell-based; settings: cOKT9 ADCs, average DAR 8, 96 h
Procedure: as §1, §2, §3

HL60/RV, MDR + AML = experiment: In vitro growth inhibition (CellTiter-Glo, 96 h), HL60/RV; assay type: cell-based; settings: cOKT9 ADCs, average DAR 8, 96 h
Procedure: as §1, §2, §3

L428, MDR + HL = experiment: In vitro growth inhibition (CellTiter-Glo, 96 h), L428; assay type: cell-based; settings: cAC10 (anti-CD30) ADCs, average DAR 4
Procedure: as §1, §4

DEL, ALCL = experiment: In vitro growth inhibition (CellTiter-Glo, 96 h), DEL; assay type: cell-based; settings: cAC10 (anti-CD30) ADCs, average DAR 4
Procedure: as §1, §4

Karpas299, ALCL = experiment: In vitro growth inhibition (CellTiter-Glo, 96 h), Karpas299; assay type: cell-based; settings: cAC10 (anti-CD30) ADCs, average DAR 4
Procedure: as §1, §4

Ramos, CD30 − NHL = experiment: In vitro growth inhibition (CellTiter-Glo, 96 h), Ramos; assay type: cell-based; settings: cAC10 (anti-CD30) ADCs, average DAR 4
Procedure: as §1, §4

[1] = system: L540cy Hodgkin's lymphoma xenograft; experiment: L540cy CD30+ Hodgkin lymphoma xenograft model; assay type: in vivo, SCID mice; settings: cAC10 S239C ADCs, average DAR 2; single dose i.p. at about 100 mm^3
Procedure: (§5) All experiments were conducted in concordance with the Animal Care and Use Committee in a facility fully accredited by the Association for Assessment and Accreditation of Laboratory Animal Care. Efficacy experiments were conducted using the L540cy Hodgkin's lymphoma and DEL/BVR anaplastic large cell lymphoma xenograft models (Mol. Cancer Ther., 2018, 17(8), 1752-1760). Tumor cells, as a cell suspension, were implanted subcutaneously in immune-compromised SCID female mice. Upon tumor engraftment, the mice were randomized into study groups when the average tumor volume reached about 100 mm^3. The ADCs were dosed once via intraperitoneal injection. Tumor volume as a function of time was determined using the formula (L×W2)/2. Animals were euthanized when tumor volumes reached 1000 mm^3.
Anti-CD30 conjugates bearing PNU drug-linkers 29, 18, and 14 were evaluated in a CD30-expressing xenograft model as described above. cAC10 antibody with the S239C mutation is conjugated to the PNU drug linkers with an average DAR of 2 to minimize the effects of ADC pharmacokinetics. Tumor-bearing mice were administered a single dose intraperitoneally (i.p.) of test article once the average tumor volume reached 100 mm^3 (typically on day 8). Untreated mice were used as negative controls.

[2] = system: DEL/BVR anaplastic large cell lymphoma xenograft; experiment: DEL/BVR MDR+, CD30+ anaplastic large cell lymphoma xenograft model; assay type: in vivo, SCID mice; settings: cAC10 S239C ADCs, average DAR 2; 3 mg/kg single dose i.p.
Procedure: as §5
Anti-CD30 conjugates bearing PNU drug-linkers 29, 18, and 14 were further evaluated in a DEL/BVR MDR+, CD30+ anaplastic large cell lymphoma xenograft model. cAC10 antibody with the S239C mutation is conjugated to the PNU drug linkers with an average DAR of 2 to minimize the effects of ADC pharmacokinetics. Tumor-bearing mice were administered a 3 mg/kg single dose intraperitoneally (i.p.) of test article once the average tumor volume reached 100 mm^3 (typically on day 4). […] However, the conjugate comprising PNU linker 29 appeared to be non-efficacious, and only provided minimal tumor growth delay (FIG. 2). Untreated mice were used as negative controls.

[3] = system: L540cy, 786-O, BxPC3, HL60, HL60/RV; settings: for IC50s of cOKT9 conjugates: 24 h
[4] = system: CD30-expressing lymphoma cell line panel; assay type: cell-based; settings: cAC10 ADC DAR 4
Procedure: as §1, §4

[5] = cAC10 (anti-CD30) ADCs, average DAR 4
[6] = cOKT9 ADCs, average DAR 8, 96 h

SMILES	IC50 (ng/mL) L540cy, HL (L540cy, HL; [5])	IC50 (ng/mL) L540cy, HL (L540cy, HL; [6])	IC50 (ng/mL) 786-O, MDR + RCC (786-O, MDR + RCC)	IC50 (ng/mL) BxPC3, PancCa (BxPC3, PancCa)	IC50 (ng/mL) HL60, AML (HL60, AML)	IC50 (ng/mL) HL60/RV, MDR + AML (HL60/RV, MDR + AML)	IC50 (ng/mL) L428, MDR + HL (L428, MDR + HL)	IC50 (ng/mL) DEL, ALCL (DEL, ALCL)	IC50 (ng/mL) Karpas299, ALCL (Karpas299, ALCL)	IC50 (ng/mL) Ramos, CD30 − NHL (Ramos, CD30 − NHL)	antitumor activity, L540cy xenograft (FIG. 1) [1]	antitumor activity, DEL/BVR xenograft (FIG. 2) [2]	IC50s of cOKT9 conjugates [3]	IC50 values of anti-CD30 conjugate, highest dose tested [4]	activity of cOKT9 conjugates across the panel of cancer cell lines ([3]; cOKT9 ADCs DAR 8, result in words)
COc1cccc2c1C(=O)c1c(O)c3c(c(O)c1C2=O)C[C@@](O)(C(=O)NCCNC(=O)CNC(=O)CNC(=O)CNC(=O)CCN1C(=O)C=CC1=O)C[C@@H]3O[C@H]1C[C@H]2[C@H](O[C@@H]3[C@@H](OC)OCCN32)[C@H](C)O1 [Compound 18, (2S,4S)—N-(15-(2,5-dioxo-2,5-dihydro-1H-pyrrol-1-yl)-4,7,10,13-tetraoxo-3,6,9,12-tetraazapentadecyl)-2,5,12-trihydroxy-7-methoxy-4-(((1S,3R,4aS,9S,9aR,10aS)-9-methoxy-1-methyloctahydro-1H-pyrano[4′,3′:4,5]oxazolo[2,3-c][1,4]oxazin-3-yl)oxy)-6,11-dioxo-1,2,3,4,6,11-hexahydrotetracene-2-carboxamide]	B (1 ng/mL≤IC50<10 ng/mL)	A (IC50<10 ng/mL)	A (IC50<10 ng/mL)	A (IC50<10 ng/mL)	B (10 ng/mL≤IC50<100 ng/mL)	D (IC50≥1000 ng/mL)	D (100 ng/mL≤IC50<500 ng/mL)	A (IC50<1 ng/mL)	A (IC50<1 ng/mL)	D (100 ng/mL≤IC50<500 ng/mL)	active with a majority of animals in a complete regression	efficacious in suppressing tumor growth	1 to 150 ng/mL		
COc1cccc2c1C(=O)c1c(O)c3c(c(O)c1C2=O)C[C@@](O)(C(=O)NCCNC(=O)CNC(=O)CNC(=O)CNC(=O)OCc1ccc(NC(=O)[C@H](C)NC(=O)[C@@H](NC(=O)CCN2C(=O)C=CC2=O)C(C)C)cc1)C[C@@H]3O[C@H]1C[C@H]2[C@H](O[C@@H]3[C@@H](OC)OCCN32)[C@H](C)O1 [Compound 29, 4-((S)-2-((S)-2-(3-(2,5-dioxo-2,5-dihydro-1H-pyrrol-1-yl)propanamido)-3-methylbutanamido)propanamido)benzyl (1,6,9,12-tetraoxo-1-((2S,4S)-2,5,12-trihydroxy-7-methoxy-4-(((1S,3R,4aS,9S,9aR,10aS)-9-methoxy-1-methyloctahydro-1H-pyrano[4′,3′:4,5]oxazolo[2,3-c][1,4]oxazin-3-yl)oxy)-6,11-dioxo-1,2,3,4,6,11-hexahydrotetracen-2-yl)-2,5,8,11-tetraazatridecan-13-yl)carbamate]	B (1 ng/mL≤IC50<10 ng/mL)	A (IC50<10 ng/mL)	B (10 ng/mL≤IC50<100 ng/mL)	A (IC50<10 ng/mL)	B (10 ng/mL≤IC50<100 ng/mL)	D (IC50≥1000 ng/mL)	E (IC50≥500 ng/mL)	A (IC50<1 ng/mL)	A (IC50<1 ng/mL)	E (IC50≥500 ng/mL)	active with a majority of animals in a complete regression	non-efficacious	1 to 150 ng/mL		
COc1cccc2c1C(=O)c1c(O)c3c(c(O)c1C2=O)C[C@@](O)(C(=O)NCCNC(=O)CNC(=O)CNC(=O)CNC(=O)CCN1C(=O)C=CC1=O)C[C@@H]3O[C@H]1C[C@H](N2CCO[C@H](OC)C2)[C@H](O)[C@H](C)O1 [Compound 33, (2S,4S)—N-(15-(2,5-dioxo-2,5-dihydro-1H-pyrrol-1-yl)-4,7,10,13-tetraoxo-3,6,9,12-tetraazapentadecyl)-2,5,12-trihydroxy-4-(((2R,4S,5S,6S)-5-hydroxy-4-((S)-2-methoxymorpholino)-6-methyltetrahydro-2H-pyran-2-yl)oxy)-7-methoxy-6,11-dioxo-1,2,3,4,6,11-hexahydrotetracene-2-carboxamide]		D (IC50≥1000 ng/mL)	D (IC50≥1000 ng/mL)	D (IC50≥1000 ng/mL)	D (IC50≥1000 ng/mL)	D (IC50≥1000 ng/mL)								> 20,000 ng/ml	inactive
